Reference: patent US20260146041A1, “PANNEXIN-1 MODULATORS AND METHODS OF TREATING DISORDERS IN WHICH PANNEXIN-1 IS IMPLICATED” (Pannex Therapeutics Inc., priority 2022, published 2026)

Columns and labels:
astrocytes = assay: LPS-stimulated ATP release by astrocytes; type: cell-based, rat; conditions: 5 or 50 μM, LPS stimulation, FIG. 15A
Method: (§1) Cortical microglia/astrocytes mechanically dissociated from decapitated postnatal P2-P4 rat pups (CD strain) were seeded on P75 flasks (1 brain per flask) and cultured at 37° C., 5% CO2 for 10-20 days using DMEM media supplemented with 10% FBS and 1% pen/strep. On Day 10, microglia were collected by gently shaking and washing and purify by passing through 20 μm cell strainer and centrifugation.
(§2) Re-suspended microglia were counted and plated onto poly-D-lysine coated 96-well culture plate at a density of 80,000 cells/well. Dislodged the remaining astrocytes (enriched astrocytes) and plated onto poly-D-lysine coated 96-well culture plate at a density of 50,000 cells/well. Overnighted microglia and/or astrocytes were treated with the PANX-1 blockers of the invention (5 or 50 μM), vehicle or control (carbenoxolone, CBX) and subjected to lipopolysaccharide stimulation. Extracellular ATP was assessed by multilabel plate reader Envision (ultrasensitive luminescence) using CellTiter-Glo (Promega) kit.

microglial cells = assay: LPS-stimulated ATP release by microglial cells; type: cell-based, rat; conditions: 5 or 50 μM, LPS stimulation, FIG. 15B
Method: as §1, §2

human PANX1 channels = biological target: T1, human PANX1 channels (Homo sapiens, UniProt Q96RD7); assay: Whole cell patch clamp assessment of PANX1 blockade on HEK293 cells stably expressing human PANX1 channels; type: cell-based; conditions: n=3
T1 construct: expressed in transfected cells; host or cells: HEK293
Method: The assessment of PANX1 blockade was assessed on HEK293 cells stably expressing human PANX1 channels, as previously described by Xu et al (2012). Briefly, wild type cells were seeded in six-well plates and 12-16 hours later, 60-70% confluent cells were transfected with the plasmid encoding hPANX1 using calcium phosphate. After 48 hours post-transfection, geneticin (G418), 0.8 mg/ml in fresh medium, was added to the cells to select for transfected clones and the medium was changed every other day. Once confluent, cells were transferred into flasks and maintained in medium containing G418 (0.8 mg/ml) for a total of 4 weeks from the transfection date.
To validate those cells as a tool to screen potential PANX1 inhibitors a number of known PANX1 inhibitors were assessed by whole cell patch clamp and the voltage/current diagrams compared to current literature. The pipette solution was 151 mM […], 10 mM HEPES, 10 mM EGTA, 3 mM MgCl2. Cells were maintained in normal extracellular solution (NES: 140 mM NaCl, 5 mM KCl, 2 mM CaCl2, 1 mM MgCl2, 10 mM D-glucose, 10 mM HEPES, pH 7.3). Voltage ramps of 1 s duration between −80 mV and +80 mV were applied at 5 s intervals. Opening of Panx1 channel was induced by hypotonic shock, by replacing the isotonic extracellular solution (310 mOsml/l) with hypotonic extracellular solution (198 mOsml/l).

mice [1] = conditions: acute; cited from earlier work
mice [2] = conditions: administered before naloxone; cited from earlier work
[3] = test system: human cortical brain tissue slices; conditions: cited from earlier work
CRC cells = conditions: cited from earlier work
mice [4] = conditions: EAE MS model in mice; cited from earlier work
Tg mice = conditions: AD model, acute inhibition; cited from earlier work

T1 sequence (Q96RD7 whole entry): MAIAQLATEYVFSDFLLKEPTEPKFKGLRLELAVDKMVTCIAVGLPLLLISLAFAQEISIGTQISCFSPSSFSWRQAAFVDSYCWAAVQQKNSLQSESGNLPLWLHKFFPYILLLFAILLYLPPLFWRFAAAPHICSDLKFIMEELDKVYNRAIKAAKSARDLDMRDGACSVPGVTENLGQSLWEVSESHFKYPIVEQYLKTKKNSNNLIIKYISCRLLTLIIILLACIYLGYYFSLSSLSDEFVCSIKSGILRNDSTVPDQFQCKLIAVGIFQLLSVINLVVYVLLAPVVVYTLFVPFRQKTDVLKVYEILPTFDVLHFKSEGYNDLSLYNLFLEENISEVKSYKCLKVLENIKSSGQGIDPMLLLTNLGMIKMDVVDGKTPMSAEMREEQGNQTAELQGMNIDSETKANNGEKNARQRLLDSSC

In the case of O=C(O)c1ccn2c(n1)nc1ccc(Cl)cc12 [CMPD054], the “release of ATP by astrocytes” value (astrocytes) is reported as “prevented” and the “release of ATP by microglial cells” value (microglial cells) is reported as “prevented”.

In the case of CC(=O)S[C@@H]1CC2=CC(=O)CC[C@]2(C)[C@H]2CC[C@@]3(C)[C@@H](CC[C@@]34CCC(=O)O4)[C@H]12 [Spirolactone, Spironolactone], the “inhibitory effect on PANX1” value (human PANX1 channels; at 3, 10, or 30 μM) is listed as “inhibitory effect” and the blood pressure (mice [1]) is listed as “acutely lowers blood pressure”.

With N[C@@H]1[C@H]2CN(c3nc4c(cc3F)c(=O)c(C(=O)O)cn4-c3cc(-c4nnn[nH]4)ccc3Cl)C[C@@H]12 [CMPD 053] the “release of ATP by astrocytes” value (astrocytes) was “prevented” and the “release of ATP by microglial cells” value (microglial cells) was “prevented”.

For CC1CCCC(n2cnc3c(N4CCCC4C)ncnc32)O1 (stereo not shown) [CMPD019], the “release of ATP by astrocytes” value (astrocytes) was “prevented” and the “release of ATP by microglial cells” value (microglial cells) was “prevented”.

In the case of OC(c1cc(C(F)(F)F)nc2c(C(F)(F)F)cccc12)C1CCCCN1 (stereo not shown) [mefloquine], the withdrawal behaviours (mice [2]) is given as “markedly reduced”, the ictal discharges [3] is given as “blocked ictal discharges” and the “growth arrest and apoptosis of CRC cells” value (CRC cells; CRC cells harboring phosphorylated p65, in culture and in mice) is given as “induced growth arrest and apoptosis”. For the same molecule, the NF-κB inhibition (CRC cells; colorectal cancer cells) was “NF-κB inhibitor”.

In the case of CC1(C)[C@@H](OC(=O)CCC(=O)O)CC[C@]2(C)[C@H]3C(=O)C=C4[C@@H]5C[C@@](C)(C(=O)O)CC[C@]5(C)CC[C@@]4(C)[C@]3(C)CC[C@@H]12 [Carbenoxolone], the “inhibitory effect on PANX1” value (human PANX1 channels; at 50 μM) is reported as “inhibitory effect”.

For CCCN(CCC)S(=O)(=O)c1ccc(C(=O)O)cc1 [Probenecid], the withdrawal behaviours (mice [2]) is given as “markedly reduced”, the ictal discharges [3] is given as “blocked ictal discharges” and the “clinical symptoms (disease score)” value (mice [4]) is given as “reduced clinical symptoms”. The excitatory synaptic defects (Tg mice) was “significantly reduced excitatory synaptic defects”.

For O=C(O)c1ccc2c(c1)c(C(=O)O)cn2CCCc1ccccc1 [CMPD043], the “release of ATP by astrocytes” value (astrocytes) was “prevented” and the “release of ATP by microglial cells” value (microglial cells) was “prevented”.
